Broadly, the IC50 is the concentration needed to halve the response being measured. The inhibition is the relative decrease from the control value, in per cent.

The structures appear in SMILES notation. Calls of active or inactive are those of the source. The calls are words filed in the database; no cut-off is given here.

Consider 22 molecules from ChEMBL document CHEMBL4680294, “Synthesis of nature product kinsenoside analogues with anti-inflammatory activity” (Bioorg Med Chem, 2021).

Data set [1] has as its system RAW264.7. In words: Antiinflammatory activity against mouse RAW 264.7 cells assessed as inhibition of LPS-induced NO production incubated for 24 hrs by Griess assay. To be noted: RAW264.7, 24 h. The class given is functional, cell-based.
For data set [2], the system named is RAW264.7. In words: Cytotoxicity against mouse RAW 264.7 cells incubated for 24 hrs by MTT assay. The class given is cell-based. Conditions: raw264.7, 24 h.
Data set [3] deals with RAW264.7. Description: Antiinflammatory activity against mouse RAW 264.7 cells assessed as inhibition of LPS-induced iNOS production at 50 uM preincubated for 1 hr followed by LPS addition measured after 16 hrs by Western blot analysis. It counts as functional, cell-based. To be noted: time 17.0 hrs. On the technique in general: In western blotting, separated proteins are transferred to a membrane and probed.

Data set [4] relates to RAW264.7. In words: Antiinflammatory activity against mouse RAW 264.7 cells assessed as inhibition of LPS-induced IL-1alpha mRNA level at 50 uM preincubated for 1 hr followed by LPS addition measured after 16 hrs by RT-PCR analysis. The class given is functional, cell-based. Conditions: time 17.0 hrs.
Data set [5] relates to RAW264.7. Description: Antiinflammatory activity against mouse RAW 264.7 cells assessed as inhibition of LPS-induced translocation into nucleus at 50 uM by preincubated for 1 hr followed by LPS addition measured after 16 hrs by immunofluorescence assay. The class given is functional, cell-based. Conditions: time 17.0 hrs.
Data set [6] relates to RAW264.7. In words: Antiinflammatory activity against mouse RAW 264.7 cells assessed as inhibition of LPS-induced COX2 production at 50 uM preincubated for 1 hr followed by LPS addition measured after 16 hrs by Western blot analysis. To be noted: time 17.0 hrs. The class given is functional, cell-based.
Data set [7] has as its system RAW264.7. In words: Antiinflammatory activity against mouse RAW 264.7 cells assessed as inhibition of LPS-induced NO production at 50 uM incubated for 24 hrs by Griess assay relative to control. It counts as functional.
In data set [8] the test system is RAW264.7. Description: Antiinflammatory activity against mouse RAW 264.7 cells assessed as inhibition of LPS-induced TNF-alpha mRNA level at 50 uM preincubated for 1 hr followed by LPS addition measured after 16 hrs by RT-PCR analysis. Conditions: time 17.0 hrs. It counts as functional, cell-based.
Data set [9] deals with RAW264.7. In words: Antiinflammatory activity against mouse RAW 264.7 cells assessed as inhibition of LPS-induced IL-6 mRNA level at 50 uM preincubated for 1 hr followed by LPS addition measured after 16 hrs by RT-PCR analysis. Conditions: time 17.0 hrs. It counts as functional, cell-based.
For data set [10], the system named is RAW264.7. Description: Antiinflammatory activity against mouse RAW 264.7 cells assessed as inhibition of LPS-induced IL-1beta mRNA level at 50 uM preincubated for 1 hr followed by LPS addition measured after 16 hrs by RT-PCR analysis. It counts as functional, cell-based. Conditions: time 17.0 hrs.
Data set [11] deals with RAW264.7. In words: Antiinflammatory activity against mouse RAW 264.7 cells assessed as inhibition of LPS-induced TNF-alpha mRNA level upto 50 uM preincubated for 1 hr followed by LPS addition measured after 16 hrs by RT-PCR analysis. The class given is functional, cell-based. To be noted: dose microM <=50, time 17.0 hrs.
Data set [12] deals with RAW264.7. In words: Antiinflammatory activity against mouse RAW 264.7 cells assessed as inhibition of LPS-induced iNOS production preincubated for 1 hr followed by LPS addition measured after 16 hrs by Western blot analysis. It counts as functional, cell-based. To be noted: time 17.0 hrs.
Data set [13] has as its system RAW264.7. In words: Antiinflammatory activity against mouse RAW 264.7 cells assessed as inhibition of LPS-induced IL-1beta mRNA level upto 50 uM preincubated for 1 hr followed by LPS addition measured after 16 hrs by RT-PCR analysis. Conditions: dose microM <=50, time 17.0 hrs. The class given is functional, cell-based.
Data set [14] deals with RAW264.7. In words: Antiinflammatory activity against mouse RAW 264.7 cells assessed as inhibition of LPS-induced translocation into nucleus upto 50 uM by preincubated for 1 hr followed by LPS addition measured after 16 hrs by immunofluorescence assay. The class given is functional, cell-based. To be noted: dose microM <=50, time 17.0 hrs.
The subject of data set [15] is RAW264.7. Description: Antiinflammatory activity against mouse RAW 264.7 cells assessed as inhibition of LPS-induced IL-6 mRNA level upto 50 uM preincubated for 1 hr followed by LPS addition measured after 16 hrs by RT-PCR analysis. It counts as functional, cell-based. Conditions: dose microM <=50, time 17.0 hrs.
Data set [16] concerns RAW264.7. In words: Antiinflammatory activity against mouse RAW 264.7 cells assessed as inhibition of LPS-induced IkappaB-alpha level preincubated for 1 hr followed by LPS addition measured after 16 hrs by Western blot analysis. To be noted: time 17.0 hrs. It counts as functional, cell-based.
The subject of data set [17] is RAW264.7. In words: Antiinflammatory activity against mouse RAW 264.7 cells assessed as inhibition of LPS-induced IL-1alpha mRNA level upto 50 uM preincubated for 1 hr followed by LPS addition measured after 16 hrs by RT-PCR analysis. The class given is functional, cell-based. To be noted: dose microM <=50, time 17.0 hrs.
Data set [18] concerns RAW264.7. Description: Antiinflammatory activity against mouse RAW 264.7 cells assessed as inhibition of LPS-induced […] p-p65 level preincubated for 1 hr followed by LPS addition measured after 16 hrs by Western blot analysis. It counts as functional, cell-based. To be noted: time 17.0 hrs.
In data set [19] the test system is RAW264.7. In words: Antiinflammatory activity against mouse RAW 264.7 cells assessed as inhibition of LPS-induced COX2 production preincubated for 1 hr followed by LPS addition measured after 16 hrs by Western blot analysis. The class given is functional, cell-based. To be noted: time 17.0 hrs.

In the case of `C[C@@H]1O[C@@H](O[C@@H]2COC(=O)C2)[C@H](O)[C@H](O)[C@H]1O`, in data set [1], the IC50 came out at 60.7 µM.

Take `O=C1C[C@@H](O[C@H]2O[C@H](CO)[C@@H](O)[C@H](O)[C@H]2O)CN1Cc1ccccc1`: the IC50 in data set [1] worked out at 72.5 µM.

In the case of `O=C1C[C@H](O[C@H]2O[C@H](CO)[C@@H](O)[C@H](O)[C@@H]2O)CN1`, the IC50 in data set [1] amounted to 67.1 µM.

For `O=C1C[C@H](O[C@H]2O[C@H](CO)[C@@H](O)[C@H](O)[C@@H]2O)CO1`, the IC50 in data set [1] stood at 38.7 µM. Besides, the Activity result in [2] is “Non-Toxic”.

On to `O=C1C[C@@H](O[C@H]2O[C@H](CO)[C@@H](O)[C@H](O)[C@@H]2O)CN1`, for which the IC50 in data set [1] amounted to 108 µM.

Regarding `C[C@@H]1O[C@@H](O[C@H]2CC(=O)N(Cc3ccccc3)C2)[C@H](O)[C@H](O)[C@H]1O`, the IC50 in data set [1] was found to be 69.7 µM.

In the case of `O=C1C[C@H](O[C@H]2O[C@H](CO)[C@@H](O)[C@H](O)[C@H]2O)CN1Cc1ccccc1`, the IC50 in data set [1] worked out at 105 µM.

On to `C[C@@H]1O[C@@H](O[C@@H]2CNC(=O)C2)[C@H](O)[C@H](O)[C@H]1O`, for which the IC50 in [1] was determined as 66.9 µM.

In the case of `O=C(NO)c1ccc(O)c(O)c1`, the inhibition result in data set [3], in [4], in [5], in [6], in [8] and in data set [9] was “Active” throughout. For the same molecule, the inhibition result in data set [10] is “Active”. In data set [7], the inhibition at 50 µM worked out at 70%.

Regarding `O=C1C[C@H](O[C@@H]2O[C@H](CO)[C@@H](O)[C@H](O)[C@H]2O)CO1` [GOODYEROSIDE], in data set [1], the IC50 came to 27.9 µM. Further, the inhibition result in data set [11], in data set [13], in data set [14], in data set [15], in data set [16] and in data set [17] was “Active” throughout. The inhibition result in [18] is “Active”. Moreover, the inhibition entry in data set [12] and in data set [19] was “Dose-dependent effect” each time. Besides, the Activity entry in data set [2] is listed as “Non-Toxic”.

`C[C@@H]1O[C@@H](O[C@H]2CNC(=O)C2)[C@H](O)[C@H](O)[C@H]1O`: the IC50 in data set [1] is 116 µM.

As for `O=C1C[C@@H](O[C@@H]2O[C@H](CO)[C@H](O)[C@H](O)[C@H]2O)CO1`, in data set [1], the IC50 was found to be 41.5 µM. The Activity entry in data set [2] is recorded as “Non-Toxic”.

With `O=C1C[C@H](O[C@H]2O[C@H](CO)[C@@H](O)[C@H](O)[C@H]2O)CO1`, the 50% inhibitory concentration (IC50) in data set [1] turned out to be 91.3 µM.

Take `O=C1C[C@@H](O[C@@H]2O[C@H](CO)[C@@H](O)[C@H](O)[C@H]2O)CO1`: the IC50 in data set [1] stood at 41.9 µM. Moreover, the Activity entry in [2] is given as “Non-Toxic”.

Consider `O=C1C[C@@H](O[C@H]2O[C@H](CO)[C@@H](O)[C@H](O)[C@H]2O)CN1`, for which the IC50 in [1] came to 89 µM.

As to `O=C1C[C@H](O[C@H]2O[C@H](CO)[C@@H](O)[C@H](O)[C@H]2O)CN1`, the IC50 in data set [1] came out at 80.9 µM.

Consider `O=C1C[C@@H](O[C@H]2O[C@H](CO)[C@@H](O)[C@H](O)[C@@H]2O)CN1Cc1ccccc1`, for which the IC50 in data set [1] turned out to be 97.2 µM.

For `O=C1C[C@H](O[C@H]2O[C@H](CO)[C@@H](O)[C@H](O)[C@@H]2O)CN1Cc1ccccc1`, the IC50 in data set [1] stood at 64 µM.

`O=C1C[C@@H](O[C@H]2O[C@H](CO)[C@@H](O)[C@H](O)[C@@H]2O)CO1`: the IC50 in data set [1] stood at 42.9 µM. For the same molecule, in data set [2], the Activity entry is recorded as “Non-Toxic”.

For the molecule `C[C@@H]1O[C@@H](O[C@H]2COC(=O)C2)[C@H](O)[C@H](O)[C@H]1O`, the IC50 in data set [1] amounted to 41.2 µM. The Activity entry in [2] is listed as “Non-Toxic”.

In the case of `O=C1C[C@H](O[C@H]2O[C@H](CO)[C@H](O)[C@H](O)[C@H]2O)CO1`, the IC50 in data set [1] was found to be 66.5 µM.

With `C[C@@H]1O[C@@H](O[C@@H]2CC(=O)N(Cc3ccccc3)C2)[C@H](O)[C@H](O)[C@H]1O`, the IC50 in data set [1] was determined as 56 µM.
